Read-outs that look alike come from different tables or passages of the source.
Experiments:
Type in all cases: cell-based, human
A549 lung cancer cell = assay: MTT anti-proliferative assay, A549; settings: MTT, 48 h
Method: (§1) The anti-proliferation activities of the synthesized analogs were assessed by an in vitro MTT assay conducted on thirteen human cell lines. Their cytotoxic activities were evaluated by measuring the inhibition of net cell growth. […]
(§2) 1.6. Cell lines and cell culture
(§3) MTT was purchased from Sigma-Aldrich Co. (St. Louis, MO, USA). The PI and Annexin V-FITC apoptosis detection kit were purchased from Invitrogen (Eugene, OR, USA). All human cell lines were used in this study. […]
(§4) cell, MCF-7 breast cancer cell, MCF-10A normal breast cell, Raji B lymphoblastoid cell and diffuse large B-cell lymphoma SU-DHL-10 cell were initially purchased from American Type Culture Collection (ATCC, Manassas, Virginia). media, DMEM, and FBS were provided from Gibco Company.
(§5) 1.7. Cell growth inhibition assay (MTT assay)
(§6) The experiment was carried out according to the method of reference. Briefly, cells were plated in 96-well plates at a den- […]
(§7) the anti-proliferative activities were determined by MTT assay. […]
(§8) (Becton-Dickinson, Franklin Lakes, NJ). […]

AGS gastric cancer cell = assay: MTT anti-proliferative assay, AGS; settings: for IC50: MTT, 48 h
Method: as §1, §2, §3, §4, §5, §6, §7, §8

[1] = tested on: BEL-7402 liver cancer cell; assay: MTT anti-proliferative assay, BEL-7402; settings: for IC50: MTT, 48 h
Method: as §1, §2, §3, §4, §5, §6, §7, §8

[2] = tested on: HCT116 colectal cancer cell; assay: MTT anti-proliferative assay, HCT116; settings: for IC50: MTT, 48 h
Method: as §1, §2, §3, §4, §5, §6, §7, §8

[3] = tested on: HeLa cervical cancer cell; assay: MTT anti-proliferative assay, HeLa; settings: for IC50: MTT, 48 h
Method: as §1, §2, §3, §4, §5, §6, §7, §8

HepG2 hepatoma cell = assay: MTT anti-proliferative assay, HepG2; settings: for IC50: MTT, 48 h, read-out: IC50 HepG-2
Method: as §1, §2, §3, §4, §5, §6, §7, §8

L-02 normal liver cell = assay: MTT assay, L-02 normal cells; settings: 48 h
Method: as §1, §2, §3, §4, §5, §6, §7, §8

[4] = tested on: MGC-803 late stage differentiation gastric cancer cell; assay: MTT anti-proliferative assay, MGC-803; settings: for IC50: MTT, 48 h
Method: as §1, §2, §3, §4, §5, §6, §7, §8

MCF-7 breast cancer cell = assay: MTT anti-proliferative assay, MCF-7; settings: MTT, 48 h
Method: as §1, §2, §3, §4, §5, §6, §7, §8

[5] = tested on: MCF-10A normal breast cell; assay: MTT assay, MCF-10A normal cells; settings: 48 h
Method: as §1, §2, §3, §4, §5, §6, §7, §8

[6] = tested on: Raji B lymphoblastoid cell; assay: MTT anti-proliferative assay, Raji; settings: for IC50: MTT, 48 h, read-out: IC50 Raji
Method: as §1, §2, §3, §4, §5, §6, §7, §8

[7] = tested on: SGC-7901 early differentiation gastric cancer cell; assay: MTT anti-proliferative assay, SGC-7901; settings: for IC50: MTT, 48 h
Method: as §1, §2, §3, §4, §5, §6, §7, §8

[8] = tested on: diffuse large B-cell lymphoma SU-DHL-10 cell; assay: MTT anti-proliferative assay, SU-DHL-10; settings: for IC50: MTT, 48 h, read-out: IC50 SU-DHL-10
Method: as §1, §2, §3, §4, §5, §6, §7, §8

| IC50 (A549 lung cancer cell) | IC50 (AGS gastric cancer cell) | IC50 [1] | IC50 ([2]; read-out: IC50 HCT-116) | IC50 [3] | IC50 (HepG2 hepatoma cell) | IC50 [4] | IC50 (MCF-7 breast cancer cell) | IC50 [6] | IC50 [7] | IC50 [8] | Compound | SI (selectivity index), IC50 (L-02)/IC50 (AGS) (AGS gastric cancer cell) | SI (selectivity index), IC50 (L-02)/IC50 (HCT-116) [2] | SI (selectivity index), IC50 (L-02)/IC50 (HepG-2) (HepG2 hepatoma cell) | IC50 (L-02 normal liver cell) | IC50 [5] | also measured |
| --- | --- | --- | --- | --- | --- | --- | --- | --- | --- | --- | --- | --- | --- | --- | --- | --- | --- |
| – | – | – | – | – | – | – | – | – | – | – | N#C/C(=C\c1cn(-c2ccccc2)nn1)c1ccc(OC(F)(F)F)cc1 [Compound 7a] | – | – | – | – | – | IC50 (A549 lung cancer cell; Homo sapiens, A549): > 100 µM; IC50 (AGS gastric cancer cell; Homo sapiens): > 100 µM; IC50 ([1]; Homo sapiens, Bel-7402): > 100 µM; IC50 ([2]; Homo sapiens, HCT-116): > 100 µM; IC50 ([3]; Homo sapiens, HeLa): > 100 µM; IC50 (HepG2 hepatoma cell; Homo sapiens, HepG2): > 100 µM; IC50 (L-02 normal liver cell; Homo sapiens): > 100 µM; IC50 ([4]; Homo sapiens, MGC-803): > 100 µM; IC50 (MCF-7 breast cancer cell; Homo sapiens, MCF7): > 100 µM; IC50 ([5]; Homo sapiens, MCF-10A): > 100 µM; IC50 ([6]; Homo sapiens, Raji): > 100 µM; IC50 ([7]; Homo sapiens, SGC-7901): > 100 µM; IC50 ([8]; Homo sapiens, SU-DHL10): > 100 µM |
| > 100 µM | 4.5 ± 2 µM | 39.4 ± 6.1 µM | 25 ± 0.5 µM | 61.7 ± 3.3 µM | 38.2 ± 0.1 µM | 11.1 ± 0.3 µM | > 100 µM | 43.1 ± 4.5 µM | 8.1 ± 2.9 µM | 29.3 ± 2 µM | Cc1ccc(/C=C(\C#N)c2cccc(OC(F)(F)F)c2)cc1 [Compound 1b2e] | > 11.9 | > 2.1 | > 1.4 | 54.2 ± 12.3 µM | > 100 µM | SI (selectivity index), IC50 (L-02)/IC50 (BEL-7402) [1]: > 1.3; SI (selectivity index), IC50 (L-02)/IC50 (MGC-803) [4]: > 4.8; SI (selectivity index), IC50 (L-02)/IC50 (Raji) [6]: > 1.2; SI (selectivity index), IC50 (L-02)/IC50 (SGC-7901) [7]: > 6.6; SI (selectivity index), IC50 (L-02)/IC50 (SU-DHL-10) [8]: > 1.8 |
| > 100 µM | 19.6 ± 2.9 µM | > 100 µM | 25.4 ± 6.8 µM | 87.3 ± 4.1 µM | 24.3 ± 3.4 µM | > 100 µM | > 100 µM | 64.9 ± 1.5 µM | > 100 µM | 73.5 ± 17.3 µM | N#C/C(=C\c1ccc(Br)cc1)c1ccc(OC(F)(F)F)cc1 [Compound 1a2d] | > 5.0 | > 3.9 | > 4.1 | > 100 µM | > 100 µM | SI (selectivity index), IC50 (L-02)/IC50 (HeLa) [3]: > 1.1; SI (selectivity index), IC50 (L-02)/IC50 (Raji) [6]: > 1.5; SI (selectivity index), IC50 (L-02)/IC50 (SU-DHL-10) [8]: > 1.3 |
| > 100 µM | 21.1 ± 5.2 µM | > 100 µM | 42.5 ± 12.3 µM | > 100 µM | 72.6 ± 25.3 µM | > 100 µM | > 100 µM | > 100 µM | > 100 µM | > 100 µM | COc1ccc(/C=C(\C#N)c2ccc(OC(F)(F)F)cc2)cc1 [Compound 1a2j] | > 4.7 | > 2.3 | > 1.3 | > 100 µM | 94.1 ± 3.5 µM | – |
| > 100 µM | > 100 µM | > 100 µM | > 100 µM | > 100 µM | > 100 µM | > 100 µM | > 100 µM | > 100 µM | > 100 µM | > 100 µM | N#C/C(=C\c1ccco1)c1ccc(OC(F)(F)F)cc1 [Compound 1a3a] | – | – | – | > 100 µM | > 100 µM | – |
| > 100 µM | 8.2 ± 2.6 µM | 3 ± 1 µM | 1.1 ± 0.3 µM | > 100 µM | 15.9 ± 5.2 µM | 1.2 ± 0.6 µM | > 100 µM | 17 ± 4.3 µM | 5.4 ± 0.2 µM | 60.4 ± 0.7 µM | N#C/C(=C\c1ccc(F)cc1)c1cccc(OC(F)(F)F)c1 [Compound 1b2b] | > 1.9 | > 14.5 | > 1.0 | 16.1 ± 1 µM | 11.3 ± 2.3 µM | SI (selectivity index), IC50 (L-02)/IC50 (BEL-7402) [1]: > 5.2; SI (selectivity index), IC50 (L-02)/IC50 (MGC-803) [4]: > 13.1; SI (selectivity index), IC50 (L-02)/IC50 (SGC-7901) [7]: > 2.9 |

| Compound | IC50 (A549 lung cancer cell) | IC50 (AGS gastric cancer cell) | IC50 [1] | IC50 ([2]; read-out: IC50 HCT-116) | IC50 [3] | IC50 (HepG2 hepatoma cell) | IC50 [4] | IC50 (MCF-7 breast cancer cell) | IC50 [6] | IC50 [7] | IC50 [8] | SI (selectivity index), IC50 (L-02)/IC50 (AGS) (AGS gastric cancer cell) | SI (selectivity index), IC50 (L-02)/IC50 (HCT-116) [2] | SI (selectivity index), IC50 (L-02)/IC50 (HepG-2) (HepG2 hepatoma cell) | IC50 (L-02 normal liver cell) | IC50 [5] | also measured |
| --- | --- | --- | --- | --- | --- | --- | --- | --- | --- | --- | --- | --- | --- | --- | --- | --- | --- |
| Cc1ccc(/C=C(\C#N)c2ccc(C(F)(F)F)cc2)cc1 [Compound 1f2n] | 37.9 ± 1 µM | 46.4 ± 15 µM | > 100 µM | 57.3 ± 3.2 µM | > 100 µM | > 100 µM | > 100 µM | > 100 µM | > 100 µM | > 100 µM | > 100 µM | > 2.4 | – | – | > 100 µM | > 100 µM | – |
| Cc1cc(C)c(/C=C(\C#N)c2ccc(C(F)(F)F)cc2)c(C)c1 [Compound 1f2r] | > 100 µM | > 100 µM | > 100 µM | > 100 µM | > 100 µM | > 100 µM | > 100 µM | > 100 µM | > 100 µM | > 100 µM | > 100 µM | – | – | – | > 100 µM | > 100 µM | – |

— publication PMC11071649, “Synthesis and Selective Anticancer Activity Evaluation of 2-phenylacrylonitrile Derivatives as Tubulin Inhibitors” (Current Medicinal Chemistry, 2024)
